Measured values: US5902787A, “Chemically modified a-macroglobulins, methods of making, and methods of using the same in anti-cytokine therapy” (The University of Virginia Patent Foundation, priority 1997, dated 1999)
Blank lines part the entries; values can stand above or below the molecule they belong to.

How the values were obtained:
[1] = system: TNF-α; assay: Nondenaturing PAGE binding of 125I-TNF-α to α2M forms; details: 125I-TNF-α 1 nM, α2M preparation 1.0 μM, 1 h at 37° C
Procedure: Nondenaturing PAGE was performed on 5% slabs.
The incubation mixtures were then subjected to nondenaturing PAGE, a method that allows recovery of noncovalent as well as covalent α2 M-cytokine complexes. Gonias et al., Ann. […] The TNF-α was detected by autoradiography or Phosphor-Imager analysis.
Crookston et al, Wollenberg et at., Amer. J. Pathol.

[2] = system: mice; assay: Toxicity of IP human MAC in mice; assay type: in vivo; details: 1.0, 2.5 or 5.0 mg IP, 5 days of observation
Procedure: Equivalent concentrations of human α2 M (native, unmodified form) were injected IP in separate animals, as a control. Each concentration of MAC or human α2 M was studied in duplicate. […] The animals were sacrificed after 5 days of observation.

[3] = system: LPS-challenged mice; assay: LPS challenge, MAC pre-treatment, survival; assay type: in vivo, CD-1 female mice; details: 2.5 mg IP 60 min prior to intravenous LPS
Procedure: Survival curves for LPS-challenged mice, with or without MAC pre-treatment.CD-5 female mice were injected EP with 2.5 mg MAC (.box-solid.) or an equivalent volume of PBS (.circle-solid.). After 60 min, the mice were anesthetized and 57 mg/kg LPS were injected intravenously. The mice were monitored for up to 5 days and then sacrificed. Survival data are presented in panel a. In panel b, mice were injected IP with 2.0 mg MAC (Δ), 1.0 mg MAC (.smallcircle.), or 2.5 mg of native human α2 M (.quadrature.). LPS was injected 60 min later.
CD-1 female mice were obtained from Charles River Breeding Laboratories. Animals were kept on a 12:12 h dark-light cycle. Mice were anesthetized with diethyl ether prior to intravenous injections of LPS. All animals were observed on a continuous basis. Those entering a moribund condition were euthanized by cervical dislocation under anesthesia.

[4] = biological target: TNF-α; details: literature (Wolf et al.); read-out: KD, TNF-α binding to α2M; cited from earlier work
[5] = system: interferon-γ; details: literature (Wolf et al.); cited from earlier work
[6] = system: ciliary neurotrophic factor; details: literature (Wolf et al.); cited from earlier work

Molecule: native human α2 M: α2-macroglobulin purified from human plasma, native unmodified form
binding of 125I-TNF-α (nondenaturing PAGE) [1]: not detected
tolerability (neurologic status, respiratory rate, eating and drinking, general behavior) [2]: without outward changes in physiology
animals that died within 24 h (deaths/total) [3]: 4/4
Kd [4]: 5 to 10 µM
binding of interferon-γ to α2M [5]: do not bind
binding of ciliary neurotrophic factor to α2M [6]: do not bind

binding of 125I-TNF-α (nondenaturing PAGE) [1]: the level of binding was low
B1: native murine α2 M: α2-macroglobulin purified from the plasma of CD-1 female mice, native form (protein, UniProt Q61838 25-1495, looked up)
Pregnancy zone protein: ATAKPQYVVLVPSEVYSGVPEKACVSLNHVNETVMLSLTLEYAMQQTKLLTDQAVDKDSFYCSPFTISGSPLPYTFITVEIKGPTQRFIKKKSIQIIKAESPVFVQTDKPIYKPGQIVKFRVVSVDISFRPLNETFPVVYIETPKRNRIFQWQNIHLAGGLHQLSFPLSVEPALGIYKVVVQKDSGKKIEHSFEVKEYVLPKFEVIIKMQKTMAFLEEELPITACGVYTYGKPVPGLVTLRVCRKYSRYRSTCHNQNSMSICEEFSQQADDKGCFRQVVKTKVFQLRQKGHDMKIEVEAKIKEEGTGIELTGIGSCEIANALSKLKFTKVNTNYRPGLPFSGQVLLVDEKGKPIPNKNITSVVSPLGYLSIFTTDEHGLANISIDTSNFTAPFLRVVVTYKQNHVCYDNWWLDEFHTQADHSATLVFSPSQSYIQLELVFGTLACGQTQEIRIHYLLNEDIMKNEKDLTFYYLIKARGSIFNLGSHVLSLEQGNMKGVFSLPIQVEPGMAPEAQLLIYAILPNEELVADAQNFEIEKCFANKVNLSFPSAQSLPASDTHLKVKAAPLSLCALTAVDQSVLLLKPEAKLSPQSIYNLLPGKTVQGAFFGVPVYKDHENCISGEDITHNGIVYTPKHSLGDNDAHSIFQSVGINIFTNSKIHKPRFCQEFQHYPAMGGVAPQALAVAASGPGSSFRAMGVPMMGLDYSDEINQVVEVRETVRKYFPETWIWDLVPLDVSGDGELAVKVPDTITEWKASAFCLSGTTGLGLSSTISLQAFQPFFLELTLPYSVVRGEAFTLKATVLNYMSHCIQIRVDLEISPDFLAVPVGGHENSHCICGNERKTVSWAVTPKSLGEVNFTATAEALQSPELCGNKLTEVPALVHKDTVVKSVIVEPEGIEKEQTYNTLLCPQDTELQDNWSLELPPNVVEGSARATHSVLGDILGSAMQNLQNLLQMPYGCGEQNMVLFVPNIYVLNYLNETQQLTEAIKSKAINYLISGYQRQLNYQHSDGSYSTFGNHGGGNTPGNTWLTAFVLKAFAQAQSHIFIEKTHITNAFNWLSMKQKENGCFQQSGYLLNNAMKGGVDDEVTLSAYITIALLEMPLPVTHSAVRNALFCLETAWASISQSQESHVYTKALLAYAFALAGNKAKRSELLESLNKDAVKEEDSLHWQRPGDVQKVKALSFYQPRAPSAEVEMTAYVLLAYLTSESSRPTRDLSSSDLSTASKIVKWISKQQNSHGGFSSTQDTVVALQALSKYGAATFTRSQKEVLVTIESSGTFSKTFHVNSGNRLLLQEVRLPDLPGNYVTKGSGSGCVYLQTSLKYNILPVADGKAPFALQVNTLPLNFDKAGDHRTFQIRINVSYTGERPSSNMVIVDVKMVSGFIPMKPSVKKLQDQPNIQRTEVNTNHVLIYIEKLTNQTLGFSFAVEQDIPVKNLKPAPIKVYDYYETDEFTVEEYSAPFSDGSEQGNA
